Test results reported in PubChem BioAssay AID463074 (Broad Institute, 2010).
Active and inactive are the calls of the source.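 Rule for the calls: active = AC50 no more than tenfold above the top dose tested, or full inhibition at every dose with a flat fit (cut at about 19 µM in these data); inconclusive = flat curve fit with inhibition between 30% and 70%, or poor fit; inactive = AC50 more than tenfold above the top dose tested.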

Tested on: HMLE_sh_eGFP viability, CellTiter-Glo luminescence, 72 h
Assay: cytotoxicity in HMLE control line with eGFP shRNA, dose response, counter-screen for HMLE_sh_ECad selective toxicity project, cell-based, HMLE_sh_eGFP, luminescence (AID 463074);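 note: counterscreen control line to flag general toxicity for the HMLE_sh_ECad screen; potency for loss of viability as luminescence drops below DMSO wells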

| Structure (SMILES) | AC50 |
| --- | --- |
| C[C@@H]1CN([C@@H](C)CO)C(=O)c2cc(NC(=O)Nc3ccc(F)cc3)ccc2O[C@@H]1CN(C)Cc1ccc(Oc2ccccc2)cc1 | 3.48 µM |
| COc1ccc(-c2sc3cc(OC)c(OC)cc3c2C#CC2(O)CCCCC2)cc1 | 5.19 µM |
| O=C(CNC(=O)C1COc2ccccc2O1)N/N=C/c1ccc(O)cc1O (stereo unspecified) | 5.21 µM |
| Cc1ccc(C(=O)CSC2=C(C#N)C(c3ccco3)C3=C(CC(C)(C)CC3=O)N2)cc1 (stereo unspecified) | 3.33 µM |
| Cc1cc(C)c(NC(=O)CSCc2c(C)noc2C)c(C)c1 | > 19.5 µM (inactive) |
| C=C1CCN([C@@H](CC(C)C)C(=O)Nc2nc3ccc(Cl)cc3s2)S(=O)(=O)c2ccccc21 | 14.5 µM |
| C=CCn1c(SCc2c(C)noc2C)nc2sc3c(c2c1=O)CCCCC3 | 1.42 µM |
| COc1cc2ccccc2cc1C(=O)Nc1ccccc1Cl | 7.94 µM |
| O=c1c2c3c(sc2nc(NCCO)n1Cc1ccco1)CCCCC3 | 2.01 µM |
| Cc1ccc(S(=O)(=O)Nc2ccccc2-c2ccccc2NS(=O)(=O)c2ccc(C)cc2)cc1 | 6.98 µM |
| COc1ccc(Br)cc1C(C[N+](=O)[O-])c1c(N)n(C)c(=O)n(C)c1=O (stereo unspecified) | 4.93 µM |
| COc1ccc2sc(-c3ccc(N(C)C)cc3)c(-c3ccc4cc[nH]c4c3)c2c1 | 16.5 µM |
| Cc1ccc(S(=O)(=O)Nc2ccc(C(OC(=O)c3ccccc3[N+](=O)[O-])(C(F)(F)F)C(F)(F)F)cc2)cc1 | 7.19 µM |
| Cc1ccc(C(C)C)c(OCc2nn(CC(=O)c3ccc(OC(F)F)cc3)c3[n+]2CCCCC3)c1 | 4.17 µM |
| Cc1ccc(NCc2ccc([N+](=O)[O-])s2)cc1 | > 19.5 µM (inactive) |
| O=S(=O)(c1ccc2ccccc2c1)N1CCN(c2ccc(O)cc2)CC1 | 8.59 µM |
| CN(C)CCNC(=O)/C(=C/c1ccc(-c2ccc(Cl)cc2Cl)o1)NC(=O)c1ccccc1 | 4.78 µM |
| O=C(CCSc1ccc(Cl)cc1)N1CCN(c2ccc(O)cc2)CC1 | 1.48 µM |
| C=C(C)COc1ccc(-c2[nH]ncc2-c2ccc(OC)c(OC)c2)c(O)c1 | 4.5 µM |
| COc1nc(N2CCCCCC2)nc(N2CCCCCC2)n1 | 7.43 µM |
| CC(C)(C)c1ccc(C(=O)CC(Sc2ccc(Cl)cc2)C(=O)O)cc1 (stereo unspecified) | 9.07 µM |
| O=C(Nc1cccc(Cl)c1N1CCCC1)c1cccc(-c2cc3ccccc3oc2=O)c1 | 0.869 µM |
| N#C/C(=C/c1cn(-c2ccccc2)nc1-c1cccc(OCc2ccc(F)cc2)c1)C(=O)NCCCn1ccnc1 | 3.4 µM |
| CCC/C(=C1/c2ccccc2C(=O)N1c1ccccc1)c1ccc2c(c1)OCCO2 | 4.08 µM |
| CCCc1nc2ccccc2c(C(=O)OCC(=O)Nc2ccc(S(=O)(=O)N3CCOCC3)cc2)c1CC | 5.86 µM |
| O=C(NC(c1ccc(Cl)cc1)c1c(O)ccc2ccccc12)c1ccccc1 (stereo unspecified) | 2 µM |

| Structure (SMILES) | AC50 |
| --- | --- |
| COc1ccccc1-c1sc2ccccc2c1C#CC1(O)CCCCC1 | 10.8 µM |
| O=C(Cn1c2ccccc2c(=O)c2ccccc21)N/N=C/c1ccc(N2CCCC2)c([N+](=O)[O-])c1 | 2.43 µM |
| CC(C)(c1ccccc1)c1ccc(OCCN2CCCC2)cc1 | 0.903 µM |
| CCC(=O)NC(=S)Nc1cccc(Cl)c1N1CCCCC1 | 9.96 µM |
| O=C(NCc1nc(-c2ccc(C(F)(F)F)cc2)no1)Nc1cc(Cl)cc(Cl)c1 | 2.46 µM |
| Cc1onc(-c2c(Cl)cccc2Cl)c1C(=O)NNc1ccccc1 | 2.09 µM |
| CN1CCN(C2=Cc3ccc(Cl)cc3Sc3ccc(F)cc32)CC1 | 6.74 µM |
| COc1ccccc1/C=C/C1(C(=O)NC2CCCC2)CC(=O)N1c1ccc(F)cc1 (stereo unspecified) | 10.1 µM |
| O=C(N/N=C/c1ccc(O)cc1O)/C(=C/c1ccccc1)CCO | 7.22 µM |
| COc1cccc(-c2sc3ccc(OC)cc3c2-c2ccc(OCCN(C)C)cc2)c1 | 3.59 µM |
| C[C@H]1[C@H](C)CC[C@]2(C)CC[C@]3(C)C(=CC(=O)C4[C@@]5(C)CC[C@H](O)C(C)(C)C5CC[C@]43C)[C@H]12 (stereo partly specified) | 3.67 µM |
| O=c1[nH]c2ccccc2n1C1CCN(CCCC(c2ccc(F)cc2)c2ccc(F)cc2)CC1 | 6.27 µM |
| CCN(CC)c1nc(SCCOC(=O)Nc2ccccc2)nc(N(CC)CC)n1 | 4.58 µM |
| CCCc1ccc(-c2cc(NC(=O)CSc3n[nH]c(N)n3)n(-c3ccccc3)n2)cc1 | 6.1 µM |
| O=C(CSCc1cccc(Br)c1)N/N=C/c1ccc2c(c1)OCO2 | 5.34 µM |
| Cc1nc2ccc(Br)cn2c1C(=O)N/N=C\c1ccc(C(C)C)cc1 | 4.34 µM |
| Cc1ccc(-c2cc(C(=O)N3N=C(C(F)F)CC3(O)C(F)F)c3ccccc3n2)cc1C (stereo unspecified) | 4.55 µM |
| CC(C)(C)c1ccc(/C=C/C(=O)c2ccc(NC3=NCCCS3)cc2)cc1 | 6.11 µM |
| COc1cc(OC)c(C=O)c(OC(=O)N2CCOCC2)c1 | > 19.5 µM (inactive) |
| NC(=O)CC(NC(=O)Cc1ccc(Br)cc1)c1ccc(NC2CCCCCC2)c([N+](=O)[O-])c1 (stereo unspecified) | 4.88 µM |
| COc1ccccc1/C=C/C=N/n1c(-c2n[nH]c3c2CCC3)n[nH]c1=S | 19.7 µM |
| O=[N+]([O-])c1cccc(-c2cc(-c3cc(Br)ccc3O)[nH]n2)c1 | 7.53 µM |
| c1ccc(CN2CCN(c3nc(NCc4ccco4)c4ccccc4n3)CC2)cc1 | 4.22 µM |
| Oc1cccc(C(O)CNCc2ccc(OCc3ccc(Cl)cc3Cl)cc2)c1 (stereo unspecified) | 7.09 µM |
| COc1cc(OC)cc(-c2sc3ccc(OC)cc3c2C#CCCO)c1 | 7.93 µM |
| CCCc1c(-c2ccc(O)cc2)nn(-c2ccc(O)cc2)c1-c1ccc(O)cc1 | 6.1 µM |

| Structure (SMILES) | AC50 |
| --- | --- |
| O=C(c1ccco1)c1nnn(Cc2ccccc2)c1-c1ccccc1 | 6.47 µM |
| Cc1nn(Cc2ccc(Cl)cc2)c(C)c1NC(=O)c1cc(-c2ccc3c(c2)OCO3)on1 | 1.17 µM |
| Cc1ccc(OCCN2CCN(c3nc(NCc4ccco4)c4ccccc4n3)CC2)cc1 | 4.66 µM |
| Cc1ccc2nc(-c3cccc(NS(C)(=O)=O)c3)cc(-c3ccccc3)c2c1 | 5.53 µM |
| O=C(NCc1ccc(F)cc1)C(=O)Nc1nc(C23CC4CC(CC(C4)C2)C3)cs1 | 2.13 µM |
| CS(=O)(=O)c1ncc(Cl)c(C(=O)Nc2ccc(N3CCOCC3)cc2)n1 | 6.81 µM |
| O=C(Nc1cnn(C23CC4CC(CC(C4)C2)C3)c1)c1cc(-c2ccccc2)on1 | 11.4 µM |
| O=[N+]([O-])c1cc(C(F)(F)F)ccc1NCCNC(=S)Nc1ccc(Cl)cc1 | 5.24 µM |
| O=C(Nc1ccc(Cl)cc1)c1nc[nH]c1C(=O)NCCN(CCNC(=O)c1[nH]cnc1C(=O)Nc1ccc(Cl)cc1)CCNC(=O)c1[nH]cnc1C(=O)Nc1ccc(Cl)cc1 | 4.36 µM |
| O=[N+]([O-])c1c(NCCCO)cc(Sc2ccc(Cl)cc2)c2nonc12 | 4.89 µM |
| Nc1ccc(N2CCN(Cc3ccccc3Cl)CC2)c(Cl)c1 | 5.59 µM |
| O=C(N/N=C/c1cc(Cl)ccc1O)c1ccc(Br)cc1 | 4.41 µM |
| CCCCCCCCCc1nc2sc3c(c2c(=O)n1NC(=O)c1ccccc1[N+](=O)[O-])CC(C)(C)OC3 | 1.21 µM |
| O=C(c1ccccc1)c1nn(-c2ccc(Cl)cc2)c(=O)cc1C(F)(F)F | 3.68 µM |
| COc1ccc(-c2sc3cc(OC)c(OC)cc3c2-c2ccc(O)cc2)cc1 | 3.7 µM |
| COC(=O)c1ccc(COc2ccccc2/C=C(\C#N)C(=O)Nc2c(C)cc(C)cc2C)cc1 | 2.08 µM |
| CCOc1ccc(/C=C/C(O)=C2/C(=O)N(C)C3(C)CC2c2ccccc2O3)cc1OC (stereo unspecified) | 5.95 µM |
| COC(=O)c1c(NC(=O)c2ccco2)sc2c1CCC2 | > 19.5 µM (inactive) |
| CCOC(=O)C(=Cc1ccc(-n2cncn2)cc1)C(=O)OCC | 6.4 µM |
| COc1ccc(OC)c(NC(=O)c2nc(S(=O)(=O)Cc3ccccc3)ncc2Cl)c1 | 6.74 µM |
| NC(=O)CC(NC(=O)Cc1ccc(Br)cc1)c1ccc(NC2CC3CCC2C3)c([N+](=O)[O-])c1 (stereo unspecified) | 6.74 µM |
| CCN(CC)S(=O)(=O)c1ccc(NC(=O)Nc2cccc(C(F)(F)F)c2)cc1 | 3.54 µM |
| COc1ccc(NC(=O)c2cc3ccc(O)cc3o/c2=N\O)cc1 | 9.36 µM |
| CC(C)OC(=O)C(=O)NNc1ccccc1 | 1.22 µM |
| NC(=O)CC(NC(=O)Cc1cccc2ccccc12)c1ccc(NCc2ccccc2)c([N+](=O)[O-])c1 (stereo unspecified) | 5.84 µM |
| Cc1ccc(C(=O)NC(=C(Cl)Cl)S(=O)(=O)c2ccc(C)cc2)cc1 | 5.16 µM |

| Structure (SMILES) | AC50 |
| --- | --- |
| COc1ccccc1NC(=O)c1c(Nc2ccccc2F)sc(C(=O)Nc2cccc(Cl)c2)c1N | 2.95 µM |
| Cc1cc(C)c(C(CC(=O)c2cccs2)C(C#N)C#N)c(C)c1 (stereo unspecified) | 5.9 µM |
| O=C(O)c1cccc(S(=O)(=O)NNc2ccccc2C(F)(F)F)c1 | 11.3 µM |
| CC1CCCN(c2ccc(C(=O)N3CCC4(CC3)OCCO4)cc2[N+](=O)[O-])C1 (stereo unspecified) | 7.96 µM |
| N#Cc1c(-c2ccccc2)c(-c2ccccc2)nn(CC(=O)NNC(=O)Nc2ccc(Cl)c(Cl)c2)c1=O | 3.28 µM |
| C#CCOCCOCCOCCNc1nc(N2CCN(C(=O)CCCCCCCCCCNC(=O)Cn3cc(C[C@@H](C)O)nn3)CC2)nc(N2CCN(C(=O)CCCCCCCCCCNC(=O)[C@@H]([C@H](C)O)n3cc(C)nn3)CC2)n1 | 4.83 µM |
| Oc1ccc(-c2cc(-c3ccc(O)cc3)nc(-c3ccccc3)n2)cc1 | 3.77 µM |
| CCOc1cc(CNc2ccc(Br)cc2)cc(Br)c1OCC(=O)NC(C)(C)C | 6.32 µM |
| COC(=O)c1ccc(/C=C/c2c(-c3ccsc3)oc3ccc(N4CCOCC4)cc23)cc1 | 6.37 µM |
| CC1CCN(c2nc(-c3cccnc3)nc3scc(-c4ccccc4)c23)CC1 | 1.48 µM |
| CN(C)CCCn1c(=S)[nH]c2sc3c(c2c1=O)CCCC3 | > 19.5 µM (inactive) |
| O=[N+]([O-])c1ccc(N2N=C(c3ccccc3)CC2c2ccccc2O)cc1 (stereo unspecified) | 2.51 µM |
| C=CCc1cccc(/C=N/NC(=O)c2ccc3nc[nH]c3c2)c1O | 6.2 µM |
| CCc1ccc(N=Nc2ccc(O)c3[nH]cnc23)cc1 | 2.06 µM |
| O=[N+]([O-])c1cccnc1N1CCC(c2cc(-c3cccc(C(F)(F)F)c3)n[nH]2)CC1 | 3.56 µM |
| O=C(Nc1ccc(Oc2c(F)c(F)c(F)c(F)c2F)cc1)OC1CCN2Cc3ccccc3N=C12 (stereo unspecified) | 1.21 µM |
| CSc1ccc2c(c1)C(N1CCN(C)CC1)Cc1ccccc1S2 (stereo unspecified) | 15.1 µM |
| CCN1CCN(CCCNC(=O)c2ccc(/C=C3/Sc4ccccc4N(Cc4ccccc4F)C3=O)cc2)CC1 | 3.14 µM |
| O=C(NC(=S)Nc1ccc(N2CCCCC2)c(Cl)c1)c1ccc2c(c1)OCCO2 | 3.58 µM |
| CC1=NN(c2nc(-c3ccc(Cl)cc3)cs2)C(=O)C1 | 12.3 µM |
| COc1cc2c(cc1NC(=O)c1cccc(S(=O)(=O)N(C)C)c1)oc1ccccc12 | 3.52 µM |
| COc1ccc(C2c3ccc4ccccc4c3Oc3ncn(Cc4ccco4)c(=N)c32)cc1OC (stereo unspecified) | 7.58 µM |
| CC1(C)Cc2c(C#N)c(NC3CCCCC3)nc(-c3ccco3)c2CO1 | 7.19 µM |
